{
  "source": "patent US20100305139A1",
  "about": "“METHOD OF TREATING ABNORMAL LIPID METABOLISM” (MITSUBISHI TANABE PHARMA CORPORATION, priority 2005, published 2010)",
  "key": {"[1]": {"tested_on": "rats with type 2 diabetes", "conditions": "non-patent reference 7; cited from earlier work"}, "Wistar rat": {"tested_on": "Wistar rat", "test": "Fasting blood sugar level in Wistar rat"}, "ZF rat": {"tested_on": "ZF rat", "test": "Oral fat loading in ZF rat (abnormal lipid and glucose metabolism)", "format": "in vivo", "protocol": "Effect of Compound 3 on Abnormal Lipid Metabolism and Abnormal Glucose Metabolism after Oral Fat Loading in ZF Rat\nThe test was performed using male ZF rats. The rats were divided into two groups (10 rats/group). Compound 3 (1 mg/kg) or a 0.5% hydroxypropylmethylcellulose solution, which was a vehicle used to dissolve the compound, was administered by gavage to each of the rats. The administered volume was 2 mL/kg for both. At 15 min after the administration, a fat emulsion (main component was soybean oil, Intralipos; Otsuka Pharmaceutical Factory, Inc.) was orally loaded at the rate of 10 mL/kg. Blood samples were sequentially collected, and plasma TG concentration, free fatty acids concentration, glucose concentration and insulin concentration were measured."}, "fat-loaded ZF rat": {"tested_on": "fat-loaded ZF rat", "test": "Oral glucose loading in fat-loaded ZF rat", "format": "in vivo", "protocol": "Effect of Compound 3 on Increase in Plasma Glucose after Oral Glucose Loading in Fat-Loaded ZF Rat\nThe test was performed using male ZF rats. The number of experimental examples was 10 for each group. […] The administered volume was 2 mL/kg for both. At 15 min after the administration, a fat emulsion (main component was soybean oil, Intralipos; Otsuka Pharmaceutical Factory, Inc.) was orally loaded at the rate of […]. Furthermore, at 6 hr after the administration of fat emulsion, a mixed carbohydrate solution of starch, sucrose and lactose (mixing ratio 6:3:1) was orally administered at 3.5 g/kg. The volume administered of each of the fat emulsion and the carbohydrate solution was 10 mL/kg. Blood samples were sequentially collected, and plasma glucose concentration was measured."}, "[2]": {"conditions": "ZF rat, summary statement, dose not given"}},
  "data": [
    {"smiles": "CC(C)[C@H]1CC[C@H](C(=O)N[C@H](Cc2ccccc2)C(=O)O)CC1", "note": "[nateglinide, (−)-N-(trans-4-isopropylcyclohexylcarbonyl)-D-phenylalanine, reference compound]", "values": [
      {"measurement": "increase in blood lipid by fat loading", "setting": "[1]", "value": "suppresses"},
      {"measurement": "plasma glucose concentration (hypoglycemia)", "setting": "Wistar rat; overnight-fasted male Wistar rats, gavage, nateglinide 10, 30, 100 or 300 mg/kg, maximum change from value before drug administration (FIG. 6)", "value": "induced hypoglycemia"},
      {"measurement": "plasma insulin concentration", "setting": "Wistar rat; overnight-fasted male Wistar rats, gavage, nateglinide 10, 30, 100 or 300 mg/kg, maximum change from value before drug administration (FIG. 7)", "value": "increased"}
    ]},
    {"smiles": "Br.Br.Br.Br.Br.Cc1cc(N2CCN([C@@H]3CN[C@H](C(=O)N4CCSC4)C3)CC2)n(-c2ccccc2)n1.Cc1cc(N2CCN([C@@H]3CN[C@H](C(=O)N4CCSC4)C3)CC2)n(-c2ccccc2)n1", "note": "[compound 3, 3-{(2S,4S)-4-[4-(3-methyl-1-phenyl-1H-pyrazol-5-yl)piperazin-1-yl]pyrrolidin-2-ylcarbonyl}thiazolidine 2.5 hydrobromide]", "values": [
      {"measurement": "increase in the plasma TG concentration after fat loading", "setting": "ZF rat; male ZF rats, 1 mg/kg by gavage 15 min before oral fat emulsion 10 mL/kg, change from value before fat loading (FIG. 1)", "value": "suppressed"},
      {"measurement": "increase in the plasma free fatty acids concentration after fat loading", "setting": "ZF rat; male ZF rats, 1 mg/kg by gavage 15 min before oral fat emulsion 10 mL/kg, change from value before fat loading (FIG. 2)", "value": "suppressed"},
      {"measurement": "increase in the plasma glucose concentration after fat loading", "setting": "ZF rat; male ZF rats, 1 mg/kg by gavage 15 min before oral fat emulsion 10 mL/kg, change from value before fat loading (FIG. 3)", "value": "suppressed"},
      {"measurement": "plasma insulin concentration after fat loading", "setting": "ZF rat; male ZF rats, 1 mg/kg by gavage 15 min before oral fat emulsion 10 mL/kg, change from value before fat loading (FIG. 4)", "value": "transiently increased"},
      {"measurement": "increase in the baseline plasma glucose concentration by fat loading", "setting": "fat-loaded ZF rat; male fat-loaded ZF rats, 1 mg/kg by gavage 15 min before fat emulsion (FIG. 5)", "value": "suppressed"},
      {"measurement": "increase in the plasma glucose concentration after oral glucose loading", "setting": "fat-loaded ZF rat; male fat-loaded ZF rats, 1 mg/kg by gavage, mixed carbohydrate 3.5 g/kg orally at 6 hr after fat loading (FIG. 5)", "value": "suppressed"},
      {"measurement": "fasting plasma glucose concentration", "setting": "Wistar rat; overnight-fasted male Wistar rats, gavage, dose of 100 mg/kg, maximum change from value before drug administration (FIG. 6)", "value": "no effect"},
      {"measurement": "fasting insulin concentration", "setting": "Wistar rat; overnight-fasted male Wistar rats, gavage, dose of 100 mg/kg, maximum change from value before drug administration (FIG. 7)", "value": "no effect"}
    ]},
    {"smiles": "Br.Cc1cc(N2CCN([C@@H]3CN[C@H](C(=O)N4CCSC4)C3)CC2)n(-c2ccccc2)n1", "note": "[compound 1, 3-{(2S,4S)-4-[4-(3-methyl-1-phenyl-1H-pyrazol-5-yl)piperazin-1-yl]pyrrolidin-2-ylcarbonyl}thiazolidine hydrobromide]", "values": [
      {"measurement": "blood glucose increase after the fat loading", "setting": "ZF rat; [2]", "value": "suppresses"},
      {"measurement": "increase in the plasma TG concentration after fat loading", "setting": "ZF rat; obese Zucker fatty rat having insulin resistance, summary statement, dose not given", "value": "suppresses"},
      {"measurement": "blood glucose increase after glucose loading in an oral glucose loading test after fat loading", "setting": "fat-loaded ZF rat; [2]", "value": "markedly suppresses"},
      {"measurement": "hypoglycemia", "setting": "Wistar rat; summary statement, unlike insulin secretagogue, dose not given", "value": "does not induce hypoglycemia"}
    ]}
  ]
}
